For one data set, the target named is Human HDAC6 (Homo sapiens (Human), UniProt Q9UBN7). The data set is described as follows: HDAC6 inhibition assay (fluorogenic p53 peptide substrate). Format: biochemical. The note with it: for IC50: mean of two experiments (TSA: 9), 10-dose, 3-fold serial dilution from 30 μM, read-out: HDAC6 IC50 (μM) ± SD.
The target in another data set is Human HDAC1 (Homo sapiens (Human), UniProt Q13547). The data set is described as follows: HDAC1 inhibition assay (fluorogenic p53 peptide substrate). Format: biochemical. The settings on record: read-out: HDAC1 IC50 (μM) ± SD.
A further data set relates to primary cortical neurons. The data set is described as follows: HCA oxidative stress neuroprotection assay (MTT viability).
The test system of data set [1] is collagen-induced arthritis model in DBA1/J mice. The data set is described as follows: Collagen-induced arthritis model. Format: in vivo. The note with it: 50 and 100 mg/kg IP. An excerpt:
In this test, DBA1/J mice (male, 7-8 weeks) were used, with 8 animals per group. Systemic arthritis was induced with bovine collagen type II and CFA, plus an IFA booster injection on day 21.
The results are summarized in FIG. 3, containing graphs of Average Arthritic Score vs. Days of Treatment.

The next data set deals with mice. The data set is described as follows: Visible platform test. Format: in vivo. The note with it: injected twice a day for two days.
The next data set deals with Aβ-infused mice. As to the kind of experiment: Contextual fear conditioning after Aβ42 infusion. Format: in vivo. As for the experimental part: In this test, mice were infused with Aβ42 via cannulas implanted into dorsal hippocampus 15 minutes prior to training. […] Fear learning was assessed 24 hours later.
For another data set, the system named is murine Treg. As to the kind of experiment: Murine Treg suppression. Format: cell-based.
For a further data set, the system named is mice with colitis. As to the kind of experiment: Colitis in mice. Format: in vivo. The note with it: treatment begun once colitis had developed. The text has this:
Studies of autoimmunity also are undertaken. In this case, interruption of existing disease is especially important and HDAC6 targeting can be efficacious without any requirement for additional therapy (in contrast to a need for brief low-dose RPM in the very aggressive, fully MHC-mismatched transplant models). […] These studies are extended by assessing whether deletion of HDAC6 in Tregs (Foxp3/Cre) vs. T cells (CD4=Cre) vs. DC (CD11c-Cre) differentially affect the development and severity of colitis. Similarly, control of colitis is assessed by inducing HDAC6 deletion at varying intervals after the onset of colitis with tamoxifen-regulated Cre.

The target in another data set is HDAC5 (Homo sapiens (Human), UniProt Q9UQL6). As to the kind of experiment: biochemical. The note with it: mean of two experiments; read-out: HDAC5 IC50 (μM) ± SD.
Another data set deals with HDAC2 (Homo sapiens (Human), UniProt Q92769). The data set is described as follows: biochemical.
The next data set has as its target HDAC7 (Homo sapiens (Human), UniProt Q8WUI4). The data set is described as follows: HDAC7 inhibition assay.
[2] abbreviates: mean of two experiments (TSA: 9), 10-dose, 3-fold serial dilution from 30 μM.

SMILES strings stand for the structures. Where two headings read alike, the source gives them in different places.

Chain of Human HDAC6 (Q9UBN7 whole entry): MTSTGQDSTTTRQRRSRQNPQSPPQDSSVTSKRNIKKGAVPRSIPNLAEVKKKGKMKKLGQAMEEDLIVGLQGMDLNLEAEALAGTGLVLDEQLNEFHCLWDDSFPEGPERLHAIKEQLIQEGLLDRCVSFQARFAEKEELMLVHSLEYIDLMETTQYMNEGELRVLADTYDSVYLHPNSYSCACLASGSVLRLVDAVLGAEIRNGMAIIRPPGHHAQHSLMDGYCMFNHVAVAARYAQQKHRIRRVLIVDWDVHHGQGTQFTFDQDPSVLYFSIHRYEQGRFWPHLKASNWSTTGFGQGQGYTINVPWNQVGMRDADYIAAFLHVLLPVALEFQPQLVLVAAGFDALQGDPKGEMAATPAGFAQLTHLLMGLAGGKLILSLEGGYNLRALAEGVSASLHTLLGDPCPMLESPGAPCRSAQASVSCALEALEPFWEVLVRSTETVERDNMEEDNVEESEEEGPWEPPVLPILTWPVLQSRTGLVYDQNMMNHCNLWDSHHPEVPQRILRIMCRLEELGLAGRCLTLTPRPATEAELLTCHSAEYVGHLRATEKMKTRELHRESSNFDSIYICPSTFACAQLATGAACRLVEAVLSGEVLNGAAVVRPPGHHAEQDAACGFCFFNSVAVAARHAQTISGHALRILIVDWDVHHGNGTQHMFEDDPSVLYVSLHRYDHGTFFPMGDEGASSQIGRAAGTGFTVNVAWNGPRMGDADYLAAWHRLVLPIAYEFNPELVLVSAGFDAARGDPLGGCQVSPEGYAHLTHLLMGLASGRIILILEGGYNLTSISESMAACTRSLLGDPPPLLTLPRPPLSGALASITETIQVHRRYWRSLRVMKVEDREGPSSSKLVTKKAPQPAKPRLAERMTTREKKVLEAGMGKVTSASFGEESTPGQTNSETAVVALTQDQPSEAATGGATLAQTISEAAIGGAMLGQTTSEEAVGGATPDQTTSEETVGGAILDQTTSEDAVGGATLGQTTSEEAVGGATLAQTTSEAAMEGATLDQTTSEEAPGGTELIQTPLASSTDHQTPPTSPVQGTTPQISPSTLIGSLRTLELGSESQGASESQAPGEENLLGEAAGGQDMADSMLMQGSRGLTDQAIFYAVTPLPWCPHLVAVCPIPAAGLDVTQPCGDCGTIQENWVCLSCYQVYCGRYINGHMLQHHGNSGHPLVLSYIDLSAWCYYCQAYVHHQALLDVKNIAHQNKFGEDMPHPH
Chain of Human HDAC1 (Q13547 whole entry): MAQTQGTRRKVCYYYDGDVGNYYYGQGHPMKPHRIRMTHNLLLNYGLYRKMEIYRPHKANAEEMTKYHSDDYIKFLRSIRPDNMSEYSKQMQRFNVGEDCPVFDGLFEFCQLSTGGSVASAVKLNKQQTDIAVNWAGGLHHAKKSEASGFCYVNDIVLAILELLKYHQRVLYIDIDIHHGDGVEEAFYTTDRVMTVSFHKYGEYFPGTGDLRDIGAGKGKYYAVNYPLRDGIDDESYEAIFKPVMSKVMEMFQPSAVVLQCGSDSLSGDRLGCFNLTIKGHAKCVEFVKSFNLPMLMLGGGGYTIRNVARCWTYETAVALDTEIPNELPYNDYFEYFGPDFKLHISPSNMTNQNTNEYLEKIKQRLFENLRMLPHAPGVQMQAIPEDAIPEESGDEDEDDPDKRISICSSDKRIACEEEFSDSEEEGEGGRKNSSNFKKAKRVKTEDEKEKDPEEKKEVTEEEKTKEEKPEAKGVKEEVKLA
Chain of HDAC5 (Q9UQL6 whole entry): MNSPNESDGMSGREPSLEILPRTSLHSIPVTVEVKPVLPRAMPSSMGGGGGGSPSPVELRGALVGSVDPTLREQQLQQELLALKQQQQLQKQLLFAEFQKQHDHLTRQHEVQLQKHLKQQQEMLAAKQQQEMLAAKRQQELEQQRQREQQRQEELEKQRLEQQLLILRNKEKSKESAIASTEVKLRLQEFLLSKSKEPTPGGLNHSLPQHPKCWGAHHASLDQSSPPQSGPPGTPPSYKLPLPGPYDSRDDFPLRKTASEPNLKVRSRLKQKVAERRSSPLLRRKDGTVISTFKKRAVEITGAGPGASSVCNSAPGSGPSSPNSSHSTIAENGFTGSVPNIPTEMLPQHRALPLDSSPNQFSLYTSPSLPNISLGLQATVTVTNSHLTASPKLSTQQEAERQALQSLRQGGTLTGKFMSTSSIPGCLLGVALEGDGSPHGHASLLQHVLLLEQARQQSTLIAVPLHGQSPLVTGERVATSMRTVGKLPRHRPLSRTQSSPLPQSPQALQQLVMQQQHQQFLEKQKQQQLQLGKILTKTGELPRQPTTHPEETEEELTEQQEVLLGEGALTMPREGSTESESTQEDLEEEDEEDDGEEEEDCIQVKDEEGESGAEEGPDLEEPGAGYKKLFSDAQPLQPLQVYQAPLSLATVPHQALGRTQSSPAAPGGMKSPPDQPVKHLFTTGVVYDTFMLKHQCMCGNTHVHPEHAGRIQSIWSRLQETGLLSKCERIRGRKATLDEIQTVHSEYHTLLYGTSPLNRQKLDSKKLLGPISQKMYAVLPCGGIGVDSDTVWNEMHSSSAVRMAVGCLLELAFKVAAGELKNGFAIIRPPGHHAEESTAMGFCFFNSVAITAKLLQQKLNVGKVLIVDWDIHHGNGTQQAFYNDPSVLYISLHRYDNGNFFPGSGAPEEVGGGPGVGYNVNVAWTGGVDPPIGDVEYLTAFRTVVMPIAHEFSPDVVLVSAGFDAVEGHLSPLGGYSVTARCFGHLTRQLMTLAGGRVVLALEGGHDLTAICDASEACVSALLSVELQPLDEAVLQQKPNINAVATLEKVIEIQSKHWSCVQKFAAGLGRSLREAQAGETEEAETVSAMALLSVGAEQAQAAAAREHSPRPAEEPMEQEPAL
Chain of HDAC2 (Q92769 whole entry): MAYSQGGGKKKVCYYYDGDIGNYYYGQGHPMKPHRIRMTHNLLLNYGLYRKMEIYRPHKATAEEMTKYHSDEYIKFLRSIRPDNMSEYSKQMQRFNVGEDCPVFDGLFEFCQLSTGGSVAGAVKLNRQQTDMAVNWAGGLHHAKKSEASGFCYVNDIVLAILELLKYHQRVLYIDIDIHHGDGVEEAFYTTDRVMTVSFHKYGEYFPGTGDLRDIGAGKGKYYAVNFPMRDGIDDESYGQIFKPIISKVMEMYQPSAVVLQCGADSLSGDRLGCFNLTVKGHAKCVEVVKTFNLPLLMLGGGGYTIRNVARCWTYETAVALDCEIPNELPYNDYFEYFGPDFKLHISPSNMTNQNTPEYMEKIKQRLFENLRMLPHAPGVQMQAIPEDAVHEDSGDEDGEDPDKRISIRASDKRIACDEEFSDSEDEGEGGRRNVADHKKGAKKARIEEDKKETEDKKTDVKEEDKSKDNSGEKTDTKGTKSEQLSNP
Chain of HDAC7 (Q8WUI4 whole entry): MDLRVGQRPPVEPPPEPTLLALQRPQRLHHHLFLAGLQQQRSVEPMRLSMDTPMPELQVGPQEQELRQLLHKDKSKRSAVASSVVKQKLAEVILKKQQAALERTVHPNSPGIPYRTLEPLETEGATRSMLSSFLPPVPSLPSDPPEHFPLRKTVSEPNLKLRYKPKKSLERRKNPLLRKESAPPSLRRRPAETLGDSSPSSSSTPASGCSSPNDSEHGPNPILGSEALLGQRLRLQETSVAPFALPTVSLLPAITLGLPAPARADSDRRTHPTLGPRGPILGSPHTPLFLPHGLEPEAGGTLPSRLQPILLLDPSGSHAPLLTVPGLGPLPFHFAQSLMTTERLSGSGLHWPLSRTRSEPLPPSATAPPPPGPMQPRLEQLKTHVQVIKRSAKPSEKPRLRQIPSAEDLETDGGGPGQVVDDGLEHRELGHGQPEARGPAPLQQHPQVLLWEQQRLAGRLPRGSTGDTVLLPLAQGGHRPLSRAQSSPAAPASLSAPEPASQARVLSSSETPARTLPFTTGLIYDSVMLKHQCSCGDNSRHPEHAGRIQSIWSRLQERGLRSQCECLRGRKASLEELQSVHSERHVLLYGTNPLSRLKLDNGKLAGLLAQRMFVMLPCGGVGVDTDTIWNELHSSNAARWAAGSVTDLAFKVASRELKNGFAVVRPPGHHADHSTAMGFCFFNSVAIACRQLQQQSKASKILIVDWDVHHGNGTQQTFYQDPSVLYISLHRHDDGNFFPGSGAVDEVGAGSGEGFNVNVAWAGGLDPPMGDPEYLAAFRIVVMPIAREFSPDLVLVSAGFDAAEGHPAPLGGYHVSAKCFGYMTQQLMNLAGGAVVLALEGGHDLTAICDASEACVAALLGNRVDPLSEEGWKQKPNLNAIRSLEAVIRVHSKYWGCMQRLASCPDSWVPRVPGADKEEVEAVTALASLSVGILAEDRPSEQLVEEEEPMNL

The IC50 is the concentration needed to halve the response being measured. As to `O=C(CCCCn1c2ccccc2c2ccccc21)NO` [Compound 9, 5-Carbazol-9-yl-pentanoic acid hydroxyamide], the 50% inhibitory concentration (IC50) at Human HDAC6 is 2.63 ± 0.04 µM; on Human HDAC1, 12.8 ± 0.7 µM.
Regarding `O=C(CCn1c2ccccc2c2ccccc21)NO` [Compound 8, 3-Carbazol-9-yl-N-hydroxy-propionamide], the half-inhibitory concentration (IC50) on Human HDAC6 was 1.59 ± 0.08 µM; on Human HDAC1 (setting [2]), over 30 µM.
For `CN1CCc2c(n(Cc3ccc(C(=O)NO)cc3)c3ccccc23)C1` [Compound 7, N-Hydroxy-4-(2-methyl-1,2,3,4-tetrahydro-b-carbolin-9-ylmethyl)benzamide], on Human HDAC6 (HDAC1 IC50/HDAC6 IC50), the “selectivity for HDAC6 against HDAC1” value is 3700 fold.
With `CN1CCc2c(c3ccccc3n2Cc2ccc(C(=O)NO)cc2)C1` [Compound 6, N-Hydroxy-4-(2-methyl-1,2,3,4-tetrahydro-pyrido[4,3-b]indol-5-ylmethyl)benzamide], in the data set on primary cortical neurons (alone (no HCA), all concentrations shown), the “toxicity to neurons when tested alone” value is reported as “no toxicity”. The “concentration at which dose-dependent protection against HCA-induced neuronal cell death starts” value in the data set with primary cortical neurons (with HCA 5 mM, 24 h) amounted to 5 µM. Besides, in [1], the body weight entry is “No loss of body weight”. In the data set on mice, the “effects on motor, sensorial, or motivational skills” value is “no effects”. In addition, the “signs of overt toxicity (food and liquid intake, weight loss, locomotion, exploratory behavior)” value in the data set on Aβ-infused mice (during the memory experiments) is reported as “no signs of overt toxicity”. Besides, the “freezing response (contextual fear conditioning)” value with Aβ-infused mice (vehicle-infused mice, 25 mg/kg ip) is “no effect”. Also, the “concentration enhancing murine Treg suppression” value in the data set on murine Treg is recorded as “greater than 100 μM”.
Take `O=C(NO)n1c2ccccc2c2ccccc21` [Compound 13, Carbazole-9-carboxylic acid hydroxyamide]: the 50% inhibitory concentration (IC50) on Human HDAC6 and on Human HDAC1 (setting [2]) was over 30 µM throughout.
In the case of `O=C(CCCCCCC(=O)Nc1ccc([C@H]2O[C@@H](CSc3nc(-c4ccccc4)c(-c4ccccc4)o3)C[C@@H](c3ccc(CO)cc3)O2)cc1)NO` [Tubacin], the “rescue of mice with established colitis” value in the data set on mice with colitis is “able to rescue mice”. The 50% inhibitory concentration (IC50) was determined as 3.35 ± 0.03 µM at HDAC5, 6.27 ± 0.29 µM against HDAC2 and 9.7 ± 1.8 µM against HDAC7.
Take `O=C(CCCCCCn1c2ccccc2c2ccccc21)NO` [Compound 10, 7-Carbazol-9-ylheptanoic acid hydroxyamide]: the half-maximal inhibitory concentration (IC50) is 0.006 ± 0.002 µM on Human HDAC6 and 0.204 ± 0.087 µM at Human HDAC1.

(Values after US8748451B2, “HDAC inhibitors and therapeutic methods of using same” (The Board of Trustees of the University of Illinois, priority 2009, dated 2014).)
